Assay results as given in patent US5935973A, “Heterocyclcarboxamide derivatives and their use as therapeutic agents” (Knoll Aktiengesellschaft, priority 1995, dated 1999).

Key:
[1] = biological target: T1, 5-HT1A receptors (Rattus norvegicus, UniProt P19327); experiment: inhibition of [3H]8-OH-DPAT binding to 5-HT1A receptors in rat hippocampal tissue; conditions: rat hippocampus; for Ki: [3H]8-OH-DPAT 2 nM, 25° C., 30 min; for inhibition at 1 µM: at 10^-6 M, [3H]8-OH-DPAT, read-out: % displacement of radio ligand, 5-HT1A
T1 construct: Hippocampal tissue from the brains of male Sprague-Dawley rats; from tissue; host or cells: rat hippocampus membranes
T1 sequence (P19327 1-422): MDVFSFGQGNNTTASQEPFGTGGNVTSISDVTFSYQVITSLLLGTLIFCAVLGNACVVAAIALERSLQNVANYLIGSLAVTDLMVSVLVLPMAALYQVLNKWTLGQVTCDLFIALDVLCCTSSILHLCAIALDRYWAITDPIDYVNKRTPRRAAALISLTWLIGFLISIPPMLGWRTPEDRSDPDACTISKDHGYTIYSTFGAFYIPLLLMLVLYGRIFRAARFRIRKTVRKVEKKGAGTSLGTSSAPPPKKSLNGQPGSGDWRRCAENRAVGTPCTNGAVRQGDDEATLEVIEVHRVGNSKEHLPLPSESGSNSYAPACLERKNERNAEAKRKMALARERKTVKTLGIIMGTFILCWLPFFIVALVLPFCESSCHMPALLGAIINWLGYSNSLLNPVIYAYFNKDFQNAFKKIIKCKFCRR
Procedure: Hippocampal tissue from the brains of male Sprague-Dawley rats (Charles River; weight range 150-250 g) was homogenised in ice-cold 50 mM Tris-HCl buffer (pH 7.7 when measured at 25° C., 1:40 w/v) and centrifuged at 30,000 g at 4° C. for 10 minutes. The pellet was rehomogenised in the same buffer, incubated at 37° C. for 10 minutes and centrifuged at 30,000 g at 4° C. for 10 minutes. The final pellet was resuspended in 50 mM Tris-HCl buffer (pH 7.7) containing 4 mM CaCl2, 0.1% L-ascorbic acid and 10 μM pargyline hydrochloride (equivalent to 6.25 mg wet weight of tissue/ml) and used immediately in the binding assay. Aliquots (400 μl; equivalent to 2.5 mg wet weight of tissue/tube) of this suspension were added to tubes containing the ligand (50 μl; 2 nM) and distilled water (50 μl total binding) or 5-HT (50 μl; 10 μM; non-specific binding) or test compound (50 μl; at a single concentration of 10^-6 M or at 10 concentrations ranging from 10^-11 -10^-3 M). The ligand was [^3 H]8-hydroxy-2-(dipropylamino)tetralin ([^3 H]8-OH-DPAT) and the mixture was incubated at 25° C. for 30 minutes before the incubation was terminated by rapid filtration.
(§1) The filters were washed with ice-cold Tris-HCl buffer and dried. The filters were punched out into vials, scintillation fluid added and radioactivity determined by liquid scintillation counting. The percentage displacement of specific binding of the tritiated ligand was calculated for the single concentration (10^-6 M) of test compound. Displacement curves were then produced for those compounds which displaced ≥50% of specific binding of the tritiated ligand at 10^-6 M using a range of concentrations of the compound. The concentration which gave 50% inhibition of specific binding (IC50) was obtained from the curve. The inhibition coefficient Ki was then calculated using the formula [formula] in which [ligand] is the concentration of the tritiated ligand used and KD is the equilibrium dissociation constant for the ligand.

[2] = biological target: α1-adrenoceptors; experiment: inhibition of [7-methoxy-3H]prazosin binding to α1-adrenoceptors in rat whole cortical tissue; conditions: rat whole cortex, 30 min; for Ki: [7-methoxy-3H]prazosin 0.1 nM, 30° C.; for % displacement of radio ligand, α1: at 10^-6 M, [7-methoxy-3H]prazosin, 1 µM
Procedure: Whole cortical tissue from the brains of male Charles River CD rats weighing between 150-250 g were homogenised in ice-cold 50 mM Tris-HCl, pH 7.6 (at 25° C.; 1:40 w/v) and centrifuged at 1000 g at 4° C. for 10 minutes. The supernatant was centrifuged at 30,000 g at 4° C. for 10 minutes. The pellet was rehomogenised in 50 mM Tris-HCl, pH 7.6 (1:40 w/v) and centrifuged at 30,000 g at 4° C. for 10 minutes. The final pellet was resuspended in 50 mM Tris-HCl, pH 7.6 (equivalent to 12.5 mg wet weight of tissue/ml) and used immediately in the binding assay. Aliquots (400 μl; equivalent to 5 mg wet weight of tissue/tube) of this suspension were added to tubes containing the ligand (50 μl; 0.1 nM) and distilled water (50 μl; total binding) or phentolamine (50 μl; 5 μM; non-specific binding) or test compound (50 μl; at a single concentration of 10^-6 M or at 10 concentrations ranging from 10^-11 -10^-3 M). The ligand was [7-methoxy-^3 H]prazosin and the mixture was incubated at 30° C. for 30 minutes before the incubation was terminated by rapid filtration.
as §1

Nc1ccsc1C(=O)NCC1CCN(C[C@H]2COc3ccc(Cl)cc3O2)CC1 [Example 17, (S)-3-amino-N-{[1-(7-chloro-1,4-benzodioxan-2-ylmethyl)-4-piperidyl]methyl}thiophene-2-carboxamide]
Ki [1]: 32 nM
Ki [2]: 70 nM

Nc1ncccc1C(=O)NCC1CCN(C[C@H]2COc3ccccc3O2)CC1 [Example 15, (S)-2-amino-N-{[1-(1,4-benzodioxan-2-ylmethyl)-4-piperidyl]methyl}pyridine-3-carboxamide]
Ki [1]: 40.8 nM
Ki [2]: 17 nM

O=C(NCC1CCN(CC2COc3ccccc3O2)CC1)c1ccccn1 (stereo not drawn) [Example 6, N-{[1-(1,4-benzodioxan-2-ylmethyl)-4-piperidyl]methyl}pyridine-2-carboxamide]
Ki [1]: 27 nM
Ki [2]: 21 nM

Nc1ncccc1C(=O)NCC1CCN(C[C@H]2COc3cccc(F)c3O2)CC1 [Example 3, (S)-(-)-2-amino-N-{[1-(8-fluoro-1,4-benzodioxan-2-ylmethyl)-4-piperidyl]methyl}pyridine-3-carboxamide]
Ki [1]: 18 nM
Ki [2]: 5.3 nM

O=C(NCC1CCN(C[C@H]2COc3ccc(Cl)cc3O2)CC1)c1cccc2cccnc12 [Example 23, (S)-N-{[1-(7-chloro-1,4-benzodioxan-2-ylmethyl)-4-piperidyl]methyl}quinoline-8-carboxamide]
Ki [1]: 70 nM
Ki [2]: 44 nM

Cc1cccc2c1O[C@@H](CN1CCC(CNC(=O)c3cccnc3N)CC1)CO2 [Example 13, (S)-2-amino-N-{[1-(8-methyl-1,4-benzodioxan-2-ylmethyl)-4-piperidyl]methyl}pyridine-3-carboxamide]
Ki [1]: 38 nM
Ki [2]: 10 nM

Nc1ccsc1C(=O)NCC1CCN(CC2COc3ccccc3O2)CC1 (stereo not drawn) [Example 16, 3-amino-N-{[1-(1,4-benzodioxan-2-ylmethyl)-4-piperidyl]methyl}thiophene-2-carboxamide]
Ki [1]: 63 nM
Ki [2]: 2 nM

Cc1ncccc1C(=O)NCC1CCN(C[C@H]2COc3ccc(Cl)cc3O2)CC1 [Example 18, (S)-N-{[1-(7-chloro-1,4-benzodioxan-2-ylmethyl)-4-piperidyl]methyl}-2-methylpyridine-3-carboxamide]
Ki [1]: 83 nM
Ki [2]: 298 nM

Nc1ncccc1C(=O)NCC1CCN(CC2COc3ccc(F)cc3O2)CC1 (stereo not drawn) [Example 10, 2-amino-N-{[1-(7-fluoro-1,4-benzodioxan-2-ylmethyl)-4-piperidyl]methyl}pyridine-3-carboxamide]
Ki [1]: 57 nM
Ki [2]: 140 nM

Nc1ncccc1C(=O)NCC1CCN(C[C@H]2COc3cccc(Cl)c3O2)CC1 [Example 2, (S)-2-amino-N-{[1-(8-chloro-1,4-benzodioxan-2-ylmethyl)-4-piperidyl]methyl}-pyridine-3-carboxamide]
inhibition at 1 µM [1]: 97%
% displacement of radio ligand, α1 [2]: 100%

Nc1ncccc1C(=O)NCC1CCN(CC2COc3ccccc3O2)CC1 (stereo not drawn) [Example 4, 2-amino-N-{[1-(1,4-benzodioxan-2-ylmethyl)-4-piperidyl]methyl}pyridine-3-carboxamide]
inhibition at 1 µM [1]: 90%
% displacement of radio ligand, α1 [2]: 89%

Cc1ncccc1C(=O)NCC1CCN(C[C@H]2COc3cccc(Cl)c3O2)CC1 [Example 9, (S)-N-{[1-(8-chloro-1,4-benzodioxan-2-ylmethyl)-4-piperidyl]methyl}-2-methylpyridine-3-carboxamide]
Ki [1]: 54 nM
Ki [2]: 20 nM

Cc1ccc2c(c1)O[C@@H](CN1CCC(CNC(=O)c3cccnc3N)CC1)CO2 [Example 5, (S)-2-amino-N-{[1-(7-methyl-1,4-benzodioxan-2-ylmethyl)-4-piperidyl]methyl}pyridine-3-carboxamide]
Ki [1]: 94 nM
Ki [2]: 65 nM

O=C(NCC1CCN(C[C@H]2COc3ccc(Cl)cc3O2)CC1)c1ccccn1 [Example 12, (S)-N-{[1-(7-chloro-1,4-benzodioxan-2-ylmethyl)-4-piperidyl]methyl}pyridine-2-carboxamide]
Ki [1]: 16 nM
Ki [2]: 132 nM

Cc1ccc(C(=O)NCC2CCN(C[C@H]3COc4ccc(Cl)cc4O3)CC2)c(N)n1 [Example 14, (S)-2-amino-N-{[1-(7-chloro-1,4-benzodioxan-2-ylmethyl)-4-piperidyl]methyl}-6-methylpyridine-3-carboxamide]
Ki [1]: 26 nM
Ki [2]: 75 nM

Nc1ncccc1C(=O)NCC1CCN(C[C@H]2COc3ccc(Cl)cc3O2)CC1 [Example 1, (S)-(-)-2-amino-N-{[1-(7-chloro-1,4-benzodioxan-2-ylmethyl)-4-piperidyl]methyl}pyridine-3-carboxamide]
Ki [1]: 41.5 nM
% displacement of radio ligand, α1 [2]: 89%

COc1cccc2c1OC(CN1CCC(CNC(=O)c3cccnc3N)CC1)CO2 (stereo not drawn) [Example 11, 2-amino-N-{[1-(8-methoxy-1,4-benzodioxan-2-ylmethyl)-4-piperidyl]methyl}pyridine-3-carboxamide]
Ki [1]: 19 nM
Ki [2]: 18 nM

O=C(NCC1CCN(CC2COc3ccccc3O2)CC1)c1cccc2cccnc12 (stereo not drawn) [Example 8, N-{[1-(1,4-benzodioxan-2-ylmethyl)-4-piperidyl]methyl}quinoline-8-carboxamide]
Ki [1]: 12 nM
Ki [2]: 8 nM

COc1ccc2c(c1)O[C@@H](CN1CCC(CNC(=O)c3cccnc3N)CC1)CO2 [Example 7, (S)-2-amino-N{[1-(7-methoxy-1,4-benzodioxan-2-ylmethyl)-4-piperidyl]methyl}-pyridine-3-carboxamide]
Ki [1]: 38 nM
Ki [2]: 104 nM

O=C(NCC1CCN(C[C@H]2COc3ccc(Cl)cc3O2)CC1)c1cccnc1 [Example 22, (S)-N-{[1-(7-chloro-1,4-benzodioxan-2-ylmethyl)-4-piperidyl]methyl}pyridine-3-carboxamide]
Ki [1]: 35 nM
Ki [2]: 172 nM

Nc1ncccc1C(=O)NCC1CCN(C[C@H]2COc3cccc(C(F)(F)F)c3O2)CC1 [Example 20, (S)-2-amino-N-{[1-(8-trifluoromethyl-1,4-benzodioxan-2-ylmethyl)-4-piperidyl]methyl}pyridine-3-carboxamide]
Ki [1]: 41 nM
Ki [2]: 4 nM
